Test results taken from US7101888B2, “Oral liquid tolterodine composition” (Pharmacia & UpJohn Company, priority 2002, dated 2006).

Legend:
[1] = Chemical stability of tolterodine in aqueous media; assay type: physicochemical
[2] = test system: muscarinic receptors of the salivary gland; conditions: compared with oxybutynin; cited from earlier work

Cc1ccc(O)c([C@H](CCN(C(C)C)C(C)C)c2ccccc2)c1 [tolterodine, (R)-N,N-diisopropyl-3-(2-hydroxy-5-methylphenyl)-3-phenylpropanamine]
stability in aqueous solutions of tolterodine salts ([1]; alkaline pH): unstable
pH of optimum stability ([1]; aqueous solutions of tolterodine salts): about 4
chemical stability in aqueous media ([1]; neutral to alkaline pH levels): chemical instability
affinity for the muscarinic receptors of the salivary gland relative to oxybutynin [2]: about eight times lower
